Data taken from US20250230226A1, “PLXDC1/PLXDC2 ACTIVATORS AND THEIR USE IN THE TREATMENT OF BLOOD VESSEL DISORDERS” (THE REGENTS OF THE UNIVERSITY OF CALIFORNIA, priority 2019, published 2025).

Tests used:
[1] = biological target: T1, PLXDC1 (Homo sapiens, UniProt Q8IUK5); test: Gfi1b promotor luciferase receptor activation assay, PLXDC1-expressing cells (FIG. 18A, 19); type: cell-based; conditions: compound treatments 1 day; basal activity defined as 1
T1 construct: expressed in transfected cells
T1 sequence (Q8IUK5 19-500): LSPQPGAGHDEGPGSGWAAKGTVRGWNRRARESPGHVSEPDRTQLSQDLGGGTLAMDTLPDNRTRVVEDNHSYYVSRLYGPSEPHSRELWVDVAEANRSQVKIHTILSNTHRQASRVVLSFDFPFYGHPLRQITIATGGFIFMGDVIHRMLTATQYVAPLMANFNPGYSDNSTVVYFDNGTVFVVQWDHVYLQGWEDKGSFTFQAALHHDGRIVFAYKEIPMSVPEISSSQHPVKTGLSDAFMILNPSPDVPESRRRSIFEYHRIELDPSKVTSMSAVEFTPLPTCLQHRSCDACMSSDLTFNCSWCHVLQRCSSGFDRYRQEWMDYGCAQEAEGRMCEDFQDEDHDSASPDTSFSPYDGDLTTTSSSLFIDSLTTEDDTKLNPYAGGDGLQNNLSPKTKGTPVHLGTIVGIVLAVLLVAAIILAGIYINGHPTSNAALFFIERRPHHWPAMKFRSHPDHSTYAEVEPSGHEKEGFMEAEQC
Text: FIG. 18A-B show activation of PLXDC1 and PLXDC2 by small molecules. […] All compound treatments were done for 1 day. Basal promotor activity of the PLXDC1-expressing cells is defined as 1.
Basal promotor activity of the PLXDC1-expressing cells is defined as 1. The basal activity of PLXDC1-expressing cells (Control) are higher than cells without PLXDC1, consistent promotor activation by the ectopic expression of the receptor without ligands.
By linking its promotor to a luciferase reporter gene, this example developed a PLXDC1 receptor activation assay.

[2] = system: LL/2 lung cancer tumor endothelial cells; test: Lung LL2 ex vivo model of tumor angiogenesis; type: cell-based, mouse; conditions: for 48 hrs (morphology observations): LL/2 tumor endothelial cells; for Cell death: drug treatment for two days, ratio of red area to total endothelial cell area; for cytotoxicity at 40 µM: Mus musculus, Endothelial cell, 48 h, read-out: Cell death
Outline: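 LL2 mouse tumor fragments (~0.075 mm³) embedded in Matrigel and cultured in endothelial growth medium at 37 °C until endothelial outgrowth (~4 days) before treatment. Cell death assessed e.g. 48 h after drug by fluorescein diacetate (live)/propidium iodide (dead) staining and red/green fluorescence imaging.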

[3] = system: CT26.CL25 colon cancer tumor endothelial cells; test: Colon CT26 ex vivo model of tumor angiogenesis; type: cell-based, mouse; conditions: for cytotoxicity at 40 µM / cytotoxicity at 10 µM: Mus musculus, Endothelial cell, 48 h, read-out: Cell death
Outline: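 Pieces of CT26 mouse tumor (~0.075 mm³) embedded in Matrigel and cultured in endothelial growth medium at 37 °C, 5% CO2 until endothelial outgrowth appeared (about 7 days), then treated. About 48 h after drug addition, live/dead staining with fluorescein diacetate and propidium iodide was imaged in green and red channels.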

In the case of O=c1[nH]cc(F)c(=O)[nH]1 [Fluorouracil, 5-fluorouracil, reference compound], the “Gfi1b promotor activity in PLXDC1-expressing cells” value [1] is reported as “does not activate this promoter”.

For COc1ccc(S(=O)(=O)c2cnc3ccc(OC(F)(F)F)cc3c2NN2CCN(C)CC2)cc1OC [Compound 88], the “48 hrs (morphology observations)” value ([2]; 40 μm) was 0, the Cell death ([2]; 40 μm) was 70% and the “48 hrs (morphology observations after 48 hours)” value ([3]; Conc. 40 μm) was “*** (100% of endothelial cells vesicularize in cell shape)”. It also gave a cytotoxicity at 40 µM [3] of 60%.

CN1CCN(Nc2c(S(=O)(=O)c3ccc(OC(F)(F)F)cc3)cnc3ccc(OC(F)(F)F)cc23)CC1 [Compound 90] was tested, and the “48 hrs (morphology observations)” value ([2]; 40 μm) was 0, the cytotoxicity at 40 µM [2] was 10% and the “48 hrs (morphology observations after 48 hours)” value ([3]; Conc. 40 μm) was 0. It also gave a cytotoxicity at 40 µM [3] of 0%.

With COc1ccc(S(=O)(=O)c2cnc3ccc(OC(F)(F)F)cc3c2N2CCCC(O)C2)cc1OC (centres unmarked) [Compound 70] the “48 hrs (morphology observations)” value ([2]; 40 μm) was “*** (more than 50% but less than 100% of endothelial cells vesicularize in cell shape)”, the Cell death ([2]; 40 μm) was 40% and the “48 hrs (morphology observations after 48 hours)” value ([3]; Conc. 40 μm) was 0. It also gave a cytotoxicity at 40 µM [3] of 10%.

With CCCCOc1ccc(S(=O)(=O)c2cnc3ccc([S+](C)[O-])cc3c2N2CCCN(CCN3CCCC3)CC2)cc1 (centres unmarked) [Compound 210] the “48 hrs (morphology observations)” value ([2]; 40 μm) was 0, the Cell death ([2]; 40 μm) was 50% and the “48 hrs (morphology observations after 48 hours)” value ([3]; Conc. 40 μm) was “*** (100% of endothelial cells vesicularize in cell shape)”. The cytotoxicity at 40 µM [3] was 70%.

In the case of CCCCCCCOc1ccc(S(=O)(=O)c2cnc3ccc([S+](C)[O-])cc3c2N2CCC(N3CCCCC3)CC2)cc1 (centres unmarked) [Compound 221], the “48 hrs (morphology observations)” value ([2]; 40 μm) is reported as “**** (100% of endothelial cells vesicularize in cell shape and look flattened in morphology (indicating disintegration of the cell body))”, the cytotoxicity at 40 µM [2] is reported as 100% and the “48 hrs (morphology observations after 48 hours)” value ([3]; Conc. 40 μm) is reported as “**** (100% of endothelial cells vesicularize in cell shape and look flattened in morphology (indicating disintegration of the cell body))”. The cytotoxicity at 40 µM [3] was 100%.

For CCCCOc1ccc(S(=O)(=O)c2cnc3ccc([S+](C)[O-])cc3c2N2CCC(N3CCCN(C)CC3)CC2)cc1 (centres unmarked) [Compound 241], the Cell death ([2]; 40 μm) was 40%, the “48 hrs (morphology observations after 48 hours)” value ([3]; Conc. 10 μm) was 0 and the cytotoxicity at 10 µM [3] was 0%.

For CCCCCCCOc1ccc(S(=O)(=O)c2cnc3ccc([S+](C)[O-])cc3c2N2CCC(N3CCCN(C)CC3)CC2)cc1 (centres unmarked) [Compound 256], the “48 hrs (morphology observations)” value ([2]; 20 μm) was “**** (100% of endothelial cells vesicularize in cell shape and look flattened in morphology (indicating disintegration of the cell body))”, the Cell death ([2]; 20 μm) was 100% and the “48 hrs (morphology observations after 48 hours)” value ([3]; Conc. 10 μm) was “*** (100% of endothelial cells vesicularize in cell shape)”. It also gave a cytotoxicity at 10 µM [3] of 90%.

In the case of CCOC(=O)C1CCN(c2c(S(=O)(=O)c3ccc(CC)cc3)cnc3ccc(OC(F)(F)F)cc23)CC1 [Compound 47], the Cell death ([2]; 40 μm) is reported as 50%, the “48 hrs (morphology observations after 48 hours)” value ([3]; Conc. 40 μm) is reported as 0 and the cytotoxicity at 40 µM [3] is reported as 10%.

For CCN(CC)C(=O)c1ccc2ncc(S(=O)(=O)c3ccc(OC)cc3)c(N3CCCN(C)CC3)c2c1 [Compound 165], the “48 hrs (morphology observations)” value ([2]; 40 μm) was “* (50% or less of cells vesicularize in cell shape)”, the cytotoxicity at 40 µM [2] was 10% and the “48 hrs (morphology observations after 48 hours)” value ([3]; Conc. 40 μm) was 0. It also gave a cytotoxicity at 40 µM [3] of 10%.

In the case of CCc1ccc(S(=O)(=O)c2cnc3ccc(OC(F)(F)F)cc3c2NCCO)cc1 [Compound 95], the Cell death ([2]; 40 μm) is reported as 10%, the “48 hrs (morphology observations after 48 hours)” value ([3]; Conc. 40 μm) is reported as 0 and the cytotoxicity at 40 µM [3] is reported as 0%.

COc1ccc(S(=O)(=O)c2cnc3ccc(OC(F)(F)F)cc3c2NN2CCN(C)CC2)cc1 [Compound 85] was tested, and the Cell death ([2]; 40 μm) was 80%, the “48 hrs (morphology observations after 48 hours)” value ([3]; Conc. 40 μm) was 0 and the cytotoxicity at 40 µM [3] was 50%.

With CCCCOc1ccc(S(=O)(=O)c2cnc3ccc(C(=O)N(CC)CC)cc3c2N2CCC(N3CCCCC3)CC2)cc1 [Compound 201] the “48 hrs (morphology observations)” value ([2]; 40 μm) was 0, the Cell death ([2]; 40 μm) was 30% and the “48 hrs (morphology observations after 48 hours)” value ([3]; Conc. 40 μm) was “* (50% or less of cells vesicularize in cell shape)”. For the same molecule, the cytotoxicity at 40 µM [3] was 10%.

With CCCCCCCOc1ccc(S(=O)(=O)c2cnc3ccc([S+](C)[O-])cc3c2N2CCC(N3CCCC(O)C3)CC2)cc1 (centres unmarked) [Compound 254] the “48 hrs (morphology observations)” value ([2]; 20 μm) was “*** (more than 50% but less than 100% of endothelial cells vesicularize in cell shape)”, the Cell death ([2]; 20 μm) was 100% and the “48 hrs (morphology observations after 48 hours)” value ([3]; Conc. 10 μm) was “** (more than 50% but less than 100% of endothelial cells vesicularize in cell shape)”. It also gave a cytotoxicity at 10 µM [3] of 40%.

CCc1ccc(S(=O)(=O)c2cnc3ccc(OC)cc3c2-n2cncn2)cc1 [Compound 79] was tested, and the Cell death ([2]; 20 μm) was 20%, the “48 hrs (morphology observations after 48 hours)” value ([3]; Conc. 10 μm) was “*** (100% of endothelial cells vesicularize in cell shape)” and the cytotoxicity at 10 µM [3] was 100%.

In the case of CCCN(CCC)c1c(S(=O)(=O)c2ccc(OC)c(OC)c2)cnc2ccc(OC(F)(F)F)cc12 [Compound 71], the “48 hrs (morphology observations)” value ([2]; 40 μm) is reported as “* (50% or less of cells vesicularize in cell shape)”, the Cell death ([2]; 40 μm) is reported as 10% and the “48 hrs (morphology observations after 48 hours)” value ([3]; Conc. 40 μm) is reported as 0. It also gave a cytotoxicity at 40 µM [3] of 0%.

CCc1ccc(S(=O)(=O)c2cnc3ccc(OC(F)(F)F)cc3c2N(CC)CC)cc1 [Compound 81] was tested, and the cytotoxicity at 40 µM [2] was 0%, the “48 hrs (morphology observations after 48 hours)” value ([3]; Conc. 40 μm) was 0 and the cytotoxicity at 40 µM [3] was 0%.
